Measurements taken from patent US12016905B2, “Pharmaceutical composition for prevention or treatment of preterm birth” (KOREA UNIVERSITY RESEARCH AND BUSINESS FOUNDATION, priority 2019, dated 2024).
“Also recorded” adds a separate entry of the source.

Legend:
[1] = test system: fibroblasts isolated from cervical cells of a mouse; experiment: Western blot of α-SMA and type I collagen in cervical fibroblasts treated with TGF-β1; assay type: cell-based
Description: (§1) The experiment process will be described with reference to FIG. 5. Cells were isolated from the cervixes of 4- to 6-week old C57BL/6 mice and subjected to primary cell culture in 60 mm dishes (step p0). After step […] is performed by culturing for 12 to 15 days, the number of fibroblasts was measured, and fibroblasts were seeded in a 6 well dish at a density of about 0.3×10^6 cells/dish, followed by secondary culture (step p2). After 1 day from the secondary culture, it was treated for 2 hours in a serum-free medium, and then treated with 10 ng/ml of TGF-β1 per dish to induce differentiation into myofibroblasts, and experimental group was treated with SB-431542, which is a TGF-1 inhibitor, at each concentration of 0, 2, 8 and 16
UM. Two days after drug treatment, cells were washed with 10× phosphate buffered saline (PBS; Affymetrix), and proteins were extracted with RIPA buffer. Western blot was performed to investigate the expression levels of α-SMA, a marker of myofibroblasts, and COLI, a marker of collagen.
As the primary antibodies, α-smooth muscle actin (1:1000) and type I collagen (1:500) antibody were reacted at 4° C. overnight, and as the secondary antibody, anti-mouse IgG (CellNest, USA) was added thereto and was detected after the reaction for 1 hour at room temperature.

[2] = test system: fibroblasts isolated from cervical cells of a mouse; experiment: mRNA expression level of α-SMA in cervical fibroblasts treated with TGF-β1; assay type: cell-based; conditions: 8 μM SB-431542 with TGF-β1
Description: as §1

[3] = test system: fibroblasts isolated from cervical cells of a mouse; experiment: Immunofluorescence staining for α-SMA protein in cervical fibroblasts treated with TGF-β1; assay type: cell-based; conditions: treated simultaneously with TGF-β1 and SB-431542
Description: as §1

cervix of C57BL/6 mice = experiment: M/C ratio (α-SMA/type I collagen, Western blot) in cervical tissue after cervical excision and 3 weeks of drug administration; assay type: in vivo, mouse
Description: Sexually mature female C57BL/6 mice were used for experiments in vivo. The laboratory was maintained at a constant temperature (22 to 24° C.) with a 12-hour day/night cycle. Partial cervical tissue excision was performed at each 5-week old. Specifically, each mouse was anesthetized by inhalation of 2 to 4% isoflurane, and then the cervix thereof was grasped by using forceps, and an excision was made to a depth of 1 mm using a scalpel. In order to minimize bleeding after excision, each mouse was compressed to stop bleeding. The length of the cervix was 2.5 mm, about 40% of the cervix was excised, and the average weight of the excised tissues was 7 mg.
At the same time as the cervical tissue excision, liquid fibronectin, and SB-431542 dissolved in DMSO were injected into the cervix through the vagina using a feeding needle.
Liquid into the fibronectin (plasma) was infused cervix through the vagina daily for 3 weeks at each dose of 20 mg and 0.2 mg (20 mg, diluted 10 times, expressed as FN (X10)). SB-431542 was dissolved in 5% DMSO, and infused into the cervix through the vagina daily for 3 weeks at each dosage of 20 mg and 0.2 mg (20 mg, diluted 10 times, indicated as SB-431542 (X10). After the drug treatment for 3 weeks, samples were obtained from the proximal cervix and distal cervix regions divided in the cervical tissue (see FIG. 13).
The protein extraction method for confirming the expression of α-SMA and type I collagen (Collagen I) was as follows. After an RIPA buffer (RIPA lysis buffer, 150 mM NaCl, 1% Triton X-100, 1% SD, 0.1% SDS, 50 mM Tris-13 HCl, 2 mM EDTA) and protease inhibitor cocktail (GenDEPOT, P3100-005) were mixed, 100 ul of the mixture was added to separate cervical tissue in each region and pulverized using a homogenizer. After the pulverized product was left on ice for 40 minutes, centrifugation was performed for 15 minutes using a centrifuge (13,000 rpm, 4 degrees). Only the supernatant was used after storage in a new tube. Protein quantification was carried out by a Bradford method (Protein assay dye reagent concentrate buffer, BioRad).
Western blot method for confirming the expression of α-SMA and type I collagen was as follows. The extracted protein was loaded on a 10% SDS PAGE gel at 5 μg each and transferred to a nitrocellulose membrane. After blocking with 5% skim milk, α-smooth muscle actin antibody (1:1000, NSJ Bioreagents, V2001) as the primary antibodies, and type I collagen antibody (1:500, Abcam, ab88147), GAPDH (1:1000, Santa Cruz, sc376559) were reacted at 4° ° C.overnight, and anti-mouse IgG (CellNest, USA) as a secondary antibody was added thereto and reacted for 1 hour at room temperature, and then was developed and detected by using an ECL kit (SuperSignal West Pico PLUS Chemiluminescent Substrate, Thermo Scientific).
For oral administration (PO), the drug was administered to the esophagus through the mouth using a feeding needle at the same time as the cervical tissue excision. SB-431542 was dissolved in 5% DMSO and injected in an amount of 10 mg/kg with each 100 ul for 3 weeks.
For intraperitoneal infusion (IP), the drug was administered intraperitoneally using an insulin syringe at the same time as the cervical tissue excision. SB-431542 was dissolved in 5% DMSO and infused in an amount of 10 mg/kg with each 100 ul for 3 weeks.

[4] = test system: fibroblasts isolated from cervical cells of a mouse; experiment: Western blot of α-SMA and type I collagen in cervical fibroblasts treated with TGF-β1; assay type: cell-based; remark: listed apart in the source
[5] = intravaginal, 0.2 mg (X10) daily for 3 weeks, versus cervical excision group
[6] = intravaginal, 20 mg daily for 3 weeks, versus cervical excision group
[7] = plasma fibronectin 2 μg/cm2 per well together with TGF-β1

Molecule: NC(=O)c1ccc(-c2nc(-c3ccc4c(c3)OCO4)c(-c3ccccn3)[nH]2)cc1 [SB-431542, 4-(5-benzol [1,3]dioxol-5-yl-4-pyrldin-2-yl-1H-imidazol-2-yl)-benzamide]
- expression of α-SMA protein ([1]; 8 μM SB-431542 with 10 ng/ml TGF-β1, two days after treatment): decreased; also recorded: significantly reduced
- collagen 1 expression ([1]; SB-431542 with TGF-β1): no effect
- mRNA expression level of α-SMA [2]: no significant change
- fluorescence detection of α-SMA [3]: reduced
- M/C ratio (cervix of C57BL/6 mice; intraperitoneal, 10 mg/kg daily for 3 weeks): lower than that of the cervical excision group
- M/C ratio (cervix of C57BL/6 mice; [5]): no significant change
- M/C ratio (cervix of C57BL/6 mice; [6]): no significant change
- M/C ratio (cervix of C57BL/6 mice; oral administration, 10 mg/kg daily for 3 weeks): lower than that of the cervical excision group

Molecule: TGF-β1: transforming growth factor beta1, used to induce differentiation of fibroblasts into myofibroblasts
- collagen 1 expression ([1]; TGF-β1 10 ng/ml): no effect
- expression level of α-SMA ([1]; TGF-β1 alone, 10 ng/ml): increased

Molecule: chondroitin sulfate
- increase in α-SMA expression by TGF-β1 ([4]; 50 μg/ml chondroitin sulfate with TGF-β1): slightly inhibited

Molecule: plasma fibronectin: fibronectin bovine plasma product purchased from Sigma-Aldrich; polypeptide of SEQ ID NO: 1
- M/C ratio (cervix of C57BL/6 mice; [5]): decreased
- M/C ratio (cervix of C57BL/6 mice; [6]): decreased
- collagen expression [4, 7]: slightly decreased
- expression level of α-SMA [4, 7]: decreased as much as in the control group
- ratio of α-SMA/collagen 1 [4, 7]: reduced

Molecule: tenascin-C: drug used for wound treatment, purchased from EMD-Millipore
- increase in α-SMA expression by TGF-β1 ([4]; 2 μg/ml tenascin-C with TGF-β1): slightly inhibited

B1: TGF-β3: drug used for wound treatment, purchased from Sigma-Aldrich (protein, UniProt P10600 301-412, looked up)
Transforming growth factor …: ALDTNYCFRNLEENCCVRPLYIDFRQDLGWKWVHEPKGYYANFCSGPCPYLRSADTTHSTVLGLYNTLNPEASASPCCVPQDLEPLTILYYVGRTPKVEQLSNMVVKSCKCS
modifications: Transforming growth factor beta-3
notes: drug used for wound treatment, purchased from Sigma-Aldrich
- increase in α-SMA expression by TGF-β1 ([4]; 10 μg/ml TGF-β3 with TGF-β1): slightly inhibited
